The source of these data is PubChem BioAssay (NCI).

Test systems include IGROV1 ovarian; NCI-H460 lung; HCC-2998 colon; M14 melanoma; NCI-H522 lung; EKVX NSCLC; SNB-75 CNS; 786-0 renal.
Assay in all cases: NCI-60 cell line screen, 48 h

Several values for one entry are separate records, joined by “and”; a condition that tells them apart may be missing. Equal values may be shown once.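 Tested at 5 concentrations; 48 h exposure; 96-well plates; endpoints linearly interpolated, else capped at highest concentration. At the GI50, growth is halved. TGI marks complete inhibition of growth.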

Consider `COc1ccc(S(=O)(=O)N2CCNCC2)cc1OC`, for which the GI50 with IGROV1 ovarian, in the assay with NCI-H460 lung, in the assay on HCC-2998 colon, in the assay with M14 melanoma, in the assay with NCI-H522 lung and in the assay on EKVX NSCLC was > 100 µM in each case. In addition, the GI50 in the assay with SNB-75 CNS and in the assay with 786-0 renal was > 100 µM throughout. Further, the TGI with IGROV1 ovarian, with NCI-H460 lung, with HCC-2998 colon, in the assay on M14 melanoma, in the assay with NCI-H522 lung and in the assay on EKVX NSCLC was > 100 µM each time. Moreover, the TGI in the assay on SNB-75 CNS and with 786-0 renal was > 100 µM in each case.
Turning to `N#CCNC(=O)c1ccc(-c2ccnc(Nc3ccc(N4CCOCC4)cc3)n2)cc1`, the GI50 in the assay with IGROV1 ovarian is 1.69 µM and 1.24 µM; in the assay with NCI-H460 lung, 2.5 µM and 1.36 µM; in the assay with HCC-2998 colon, > 10 µM and 3.98 µM; in the assay on M14 melanoma it was 4.47 µM and 4.29 µM; in the assay on NCI-H522 lung, 1.22 µM and 0.713 µM; in the assay with EKVX NSCLC, > 10 µM. Also, the GI50 in the assay with SNB-75 CNS is 0.621 µM and 0.186 µM; in the assay on 786-0 renal, 1.56 µM and 1.26 µM. Also, the TGI in the assay on IGROV1 ovarian was > 10 µM and 20.3 µM; with NCI-H460 lung, > 10 µM and 11.3 µM; in the assay with HCC-2998 colon, > 10 µM and 47.4 µM; in the assay with M14 melanoma, > 100 µM; with NCI-H522 lung, > 10 µM and 21.5 µM; with EKVX NSCLC it was > 10 µM. In addition, the TGI in the assay with SNB-75 CNS is 5.6 µM and 4.17 µM; with 786-0 renal, > 10 µM and 13.1 µM.
On to `COc1cc2c(cc1NC(=O)C(Cl)Cl)-c1ccc(NC(=O)C(Cl)Cl)cc1C2`, for which the GI50 in the assay with IGROV1 ovarian was 1.16 µM; with NCI-H460 lung it was 0.25 µM; with HCC-2998 colon, 0.976 µM; in the assay on M14 melanoma, 3.14 µM; in the assay with NCI-H522 lung, 5.83 µM; with EKVX NSCLC, 0.347 µM. The GI50 was 0.758 µM in the assay with SNB-75 CNS and 1.27 µM in the assay with 786-0 renal. In addition, the TGI in the assay on IGROV1 ovarian was determined as 5.58 µM; in the assay on NCI-H460 lung it was 0.69 µM; with HCC-2998 colon, 2.38 µM; with M14 melanoma, 16.5 µM; with NCI-H522 lung, 19.7 µM; with EKVX NSCLC, 1.32 µM. Besides, the TGI in the assay with SNB-75 CNS was determined as 3.19 µM; in the assay with 786-0 renal, 3.92 µM.
As to `CN(C)c1nc(N)c(C#N)c(C#N)c1C#N`, the TGI with IGROV1 ovarian is > 10 µM; in the assay with NCI-H460 lung, > 10 µM; with HCC-2998 colon, > 10 µM; in the assay with M14 melanoma, > 10 µM; in the assay with NCI-H522 lung, 3.8 µM; in the assay with EKVX NSCLC it was > 10 µM. For the same compound, the TGI with SNB-75 CNS and with 786-0 renal was > 10 µM throughout.
On to `N#Cc1c(NC(=O)c2ccccc2F)sc2c1CCCC2`, for which the GI50 in the assay with IGROV1 ovarian was > 25 µM; in the assay with NCI-H460 lung, > 19.5 µM; in the assay with HCC-2998 colon, 13.4 µM; with M14 melanoma, > 25 µM; with NCI-H522 lung, > 12.8 µM; with EKVX NSCLC, > 25 µM. The GI50 with SNB-75 CNS is > 21.7 µM; in the assay on 786-0 renal it was > 25 µM. Also, the TGI with IGROV1 ovarian, in the assay on NCI-H460 lung, with HCC-2998 colon, in the assay on M14 melanoma, in the assay on NCI-H522 lung and in the assay with EKVX NSCLC was > 25 µM each time. In addition, the TGI with SNB-75 CNS and in the assay on 786-0 renal was > 25 µM in each case.
Consider `C=CC(=O)N[C@@H](/C=C/C(=O)OCC)Cc1ccc(-c2cc(Cl)cc(Cl)c2)cc1`, for which the GI50 was 12.7 µM with IGROV1 ovarian; 11.2 µM in the assay on NCI-H460 lung; 19.9 µM in the assay with HCC-2998 colon; 17 µM in the assay on M14 melanoma; 7.6 µM with NCI-H522 lung; 11.2 µM in the assay with EKVX NSCLC. Besides, the GI50 in the assay with SNB-75 CNS is 10.8 µM; in the assay with 786-0 renal it was 20.2 µM. For the same compound, the TGI with IGROV1 ovarian is > 100 µM; in the assay on NCI-H460 lung, 32.8 µM; in the assay on HCC-2998 colon it was 57.6 µM; in the assay with M14 melanoma, 80.6 µM; in the assay on NCI-H522 lung, 24.9 µM; in the assay with EKVX NSCLC it was > 100 µM. Besides, the values for the TGI in the assay with SNB-75 CNS and in the assay on 786-0 renal were 70 µM and 91 µM, respectively.
`COC1=C(OC)[C@]2(OC)c3c(O)c(OC)c4c(c3O[C@@]23O[C@@H](c2ccccc2)CC=C3C1=O)[C@@H](OC)C[C@H](c1ccccc1)O4`: the GI50 in the assay on IGROV1 ovarian was 0.374 µM; in the assay with NCI-H460 lung, 1.09 µM; in the assay with HCC-2998 colon, 1.4 µM; with M14 melanoma, 0.516 µM; in the assay with NCI-H522 lung, 0.247 µM; in the assay with EKVX NSCLC, 1.3 µM. Moreover, the GI50 in the assay on SNB-75 CNS was 1.36 µM; in the assay on 786-0 renal, 0.292 µM. In addition, the TGI in the assay with IGROV1 ovarian worked out at 1.41 µM; with NCI-H460 lung, 2.56 µM; in the assay on HCC-2998 colon it was 3.32 µM; in the assay on M14 melanoma, 1.86 µM; with NCI-H522 lung it was 0.762 µM; in the assay on EKVX NSCLC, 2.75 µM. Further, the TGI with SNB-75 CNS worked out at 2.79 µM; in the assay on 786-0 renal, 0.801 µM.
For the compound `CC1CCN(CCOc2ccc(CNc3ccc4nc(CCC5CCCCC5)[nH]c4c3)cc2)CC1`, the GI50 is 1.59 µM with IGROV1 ovarian; 1.72 µM in the assay on NCI-H460 lung; 1.42 µM in the assay with HCC-2998 colon; 1.56 µM in the assay on M14 melanoma; 1.82 µM in the assay on NCI-H522 lung; 1.62 µM in the assay on EKVX NSCLC. Moreover, the GI50 in the assay with SNB-75 CNS was 1.59 µM; in the assay on 786-0 renal, 1.43 µM. Moreover, the TGI with IGROV1 ovarian is 3.27 µM; with NCI-H460 lung, 3.34 µM; in the assay on HCC-2998 colon it was 2.85 µM; with M14 melanoma, 3.01 µM; in the assay with NCI-H522 lung, 3.58 µM; in the assay on EKVX NSCLC, 3.18 µM. Further, the TGI in the assay on SNB-75 CNS turned out to be 3.55 µM; in the assay with 786-0 renal, 2.79 µM.
In the case of `O=C(c1cc(Cc2n[nH]c(=O)c3ccccc23)ccc1F)N1CCN(C(=O)C2CC2)CC1`, the GI50 with IGROV1 ovarian is 56.8 µM and 68.3 µM; in the assay on NCI-H460 lung, 9.25 µM and 9.96 µM; with HCC-2998 colon it was 53.5 µM and > 100 µM; with M14 melanoma it was 73.3 µM and > 86 µM; in the assay on NCI-H522 lung it was > 100 µM; in the assay on EKVX NSCLC it was 18 µM and 77.7 µM. For the same compound, the GI50 in the assay on SNB-75 CNS was 14.9 µM and 18 µM; in the assay on 786-0 renal, > 100 µM. The TGI in the assay with IGROV1 ovarian, in the assay with NCI-H460 lung, with HCC-2998 colon, in the assay with M14 melanoma, with NCI-H522 lung and with EKVX NSCLC was > 100 µM each time. Moreover, the TGI in the assay with SNB-75 CNS and with 786-0 renal was > 100 µM throughout.
